# Target: IDH1 R132H (Homo sapiens, UniProt O75874, R132H)
# Experiment: In vitro assay for IDH1 R132H inhibitors (NADPH/aKG, resazurin detection)
# Type: biochemical
# Details: Table 4B; 0.2 μg/ml IDH1 R132H, 50 minutes at room temperature; read-out: IC50, IDH1 R132H Inhibition
# Method: Assays were conducted in a volume of 76 μl assay buffer (150 mM NaCl, 10 mM MgCl2, 20 mM Tris pH 7.5, 0.03% bovine serum albumin) as follows in a standard 384-well plate: To 25 ul of substrate mix (8 uM NADPH, 2 mM aKG), 1 μl of test compound was added in DMSO. The plate was centrifuged briefly, and then 25 μl of enzyme mix was added (0.2 μg/ml IDH1 R132H) followed by a brief centrifugation and shake at 100 RPM. The reaction was incubated for 50 minutes at room temperature, then 25 μl of detection mix (30 μM resazurin, […]) was added and the mixture further incubated for 5 minutes at room temperature. The conversion of resazurin to resorufin was detected by fluorescent spectroscopy at Ex544 Em590 c/o 590.
# The compounds of Formula I set forth in Table 1 and the compounds set forth in Table 2 were tested in this assay and the results set forth below in Table 4A and 4B.
# Chain of IDH1 R132H (O75874 whole entry R132H): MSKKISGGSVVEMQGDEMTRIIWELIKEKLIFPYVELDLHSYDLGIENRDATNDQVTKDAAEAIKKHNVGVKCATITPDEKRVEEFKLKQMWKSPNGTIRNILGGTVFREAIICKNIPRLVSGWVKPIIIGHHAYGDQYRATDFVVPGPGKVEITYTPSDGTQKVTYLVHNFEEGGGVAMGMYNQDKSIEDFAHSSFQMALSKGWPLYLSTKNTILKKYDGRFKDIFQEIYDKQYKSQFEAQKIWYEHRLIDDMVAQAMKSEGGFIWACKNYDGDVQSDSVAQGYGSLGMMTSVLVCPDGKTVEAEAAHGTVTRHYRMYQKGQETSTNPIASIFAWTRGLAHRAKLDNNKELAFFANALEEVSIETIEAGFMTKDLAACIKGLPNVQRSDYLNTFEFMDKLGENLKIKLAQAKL
row,IC50 [nM],SMILES
1,100 to 1000,Cc1ccccc1C(C(=O)NC1CCCCC1)N(C(=O)Cc1cccs1)c1ccc2c(c1)OCCO2 (stereo not shown) [Compound 149]
2,≤ 100,Cc1ccccc1C(C(=O)NC1CCCCC1)N(C(=O)Cc1ccsc1)c1cccc(F)c1 (stereo not shown) [Compound 150]
3,100 to 1000,Cc1ccccc1C(C(=O)NC1CCCCC1)N(C(=O)Cn1nnc2ccccc21)c1cccc(F)c1 (stereo not shown) [Compound 151]
4,100 to 1000,Cc1ccccc1C(C(=O)NC1CCCCC1)N(C(=O)CNCc1ccccc1)c1cccc(F)c1 (stereo not shown) [Compound 152]
5,100 to 1000,Cc1ccccc1C(C(=O)NC1CCCCC1)N(C(=O)CN1CCc2ccccc21)c1cccc(F)c1 (stereo not shown) [Compound 153]
6,≤ 100,Cc1ccccc1C(C(=O)NC1CCCCC1)N(C(=O)CNc1ccccc1)c1cccc(F)c1 (stereo not shown) [Compound 155]
7,100 to 1000,Cc1ccccc1C(C(=O)NC1CCCCC1)N(C(=O)Cn1ccnc1)c1cccc(F)c1 (stereo not shown) [Compound 156]
8,100 to 1000,Cc1ccccc1C(C(=O)NC1CCCCC1)N(Cc1cccs1)C(=O)Cn1nnc2ccccc21 (stereo not shown) [Compound 157]
9,100 to 1000,Cc1ccccc1C(C(=O)NC1CCOCC1)N(C(=O)Cc1cccs1)c1cccc(F)c1 (stereo not shown) [Compound 159]
10,100 to 1000,Cc1ccccc1C(C(=O)Nc1ccccc1Br)N(C(=O)Cc1cccs1)c1cccc(F)c1 (stereo not shown) [Compound 164]
11,1000 to 10000,Cc1ccccc1C(C(=O)NC1CCCCC1)N(Cc1cccs1)C(=O)CN1CCCc2ccccc21 (stereo not shown) [Compound 168]
12,100 to 1000,Cc1ccccc1C(C(=O)NC1CCCCC1)N(Cc1cccs1)C(=O)CNCc1ccncc1 (stereo not shown) [Compound 169]
13,100 to 1000,O=C(NC1CCCCC1)C(c1ccccc1F)N(C(=O)CNCc1ccncc1)c1cccc(F)c1 (stereo not shown) [Compound 323]
14,100 to 1000,Cc1ccccc1C(C(=O)NC1CCCCC1)N(C(=O)Cn1ccnn1)c1cccc(F)c1 (stereo not shown) [Compound 329]
15,100 to 1000,Cc1ccccc1[C@@H](C(=O)NC1CCCCC1)N(C(=O)[C@H]1CCCCN1)c1cccc(F)c1 [Compound 337]
16,100 to 1000,Cc1ccccc1[C@@H](C(=O)NC1CCCCC1)N(C(=O)[C@@H]1CCCN1C(=O)OC(C)(C)C)c1cccc(F)c1 [Compound 343]
17,≤ 100,CCOC(=O)N1CCCC[C@H]1C(=O)N(c1cccc(F)c1)[C@H](C(=O)NC1CCCCC1)c1ccccc1C [Compound 348]
18,100 to 1000,Cc1ccccc1[C@@H](C(=O)NC1CCCCC1)N(C(=O)[C@@H]1CCCCN1S(C)(=O)=O)c1cccc(F)c1 [Compound 349]
19,100 to 1000,Cc1ccccc1C(C(=O)NC1CCCCC1)N(C(=O)CNC(=O)OC(C)(C)C)c1ccccc1F (stereo not shown) [Compound 352]
20,100 to 1000,COC(=O)NCC(=O)N(c1ccc(F)cc1)C(C(=O)NC1CCCCC1)c1ccccc1C (stereo not shown) [Compound 353]
21,100 to 1000,COC(=O)N1CCC[C@@H]1C(=O)N(c1cccc(F)c1)[C@H](C(=O)NC1CCCCC1)c1ccccc1C [Compound 355]
22,100 to 1000,COC(=O)NCC(=O)N(c1ccc(F)c(F)c1)C(C(=O)NC1CCCCC1)c1ccccc1C (stereo not shown) [Compound 358]
23,100 to 1000,CCOC(=O)N1CCC[C@@H]1C(=O)N(c1cccc(F)c1)[C@H](C(=O)NC1CCCCC1)c1ccccc1C [Compound 360]
24,100 to 1000,Cc1ccccc1[C@@H](C(=O)NC1CCCCC1)N(C(=O)[C@@H]1CCCN1S(C)(=O)=O)c1cccc(F)c1 [Compound 362]
25,100 to 1000,CNC(=O)N1CCCC[C@@H]1C(=O)N(c1cccc(F)c1)[C@H](C(=O)NC1CCCCC1)c1ccccc1C [Compound 364]
26,100 to 1000,Cc1ccccc1[C@@H](C(=O)NC1CCCCC1)N(C(=O)[C@H]1CCCCN1C(=O)N(C)C)c1cccc(F)c1 [Compound 365]
27,100 to 1000,Cc1ccccc1C(C(=O)NC1CCCCC1)N(C(=O)CNC(=O)OC(C)(C)C)c1cccc(F)c1 (stereo not shown) [Compound 368]
28,100 to 1000,Cc1ccccc1C(C(=O)NC1CCCCC1)N(C(=O)CCNC(=O)OC(C)(C)C)c1cccc(F)c1 (stereo not shown) [Compound 369]
29,100 to 1000,CC(=O)N1CCC[C@@H]1C(=O)N(c1cccc(F)c1)[C@H](C(=O)NC1CCCCC1)c1ccccc1C [Compound 371]
30,100 to 1000,COC(=O)NCC(=O)N(Cc1cccs1)C(C(=O)NC1CCCCC1)c1ccccc1C (stereo not shown) [Compound 372]

# Continued, compound first:
row,SMILES,IC50 [nM]
1,O=C(NC1CCCCC1)C(c1cccc(Cl)c1)N(C(=O)Cc1cccs1)c1cccc(F)c1 (stereo not shown) [Compound 107],100 to 1000
2,O=C(NC1CCCCC1)C(c1ccccc1C(F)(F)F)N(C(=O)Cc1cccs1)c1cccc(F)c1 (stereo not shown) [Compound 108],100 to 1000
3,Cc1ccccc1C(C(=O)NC(C)(C)C)N(C(=O)Cc1cccs1)c1cccc(F)c1 (stereo not shown) [Compound 109],100 to 1000
4,Cc1ccccc1NC(=O)C(c1ccccc1C)N(C(=O)Cc1cccs1)c1cccc(F)c1 (stereo not shown) [Compound 110],100 to 1000
5,Cc1ccccc1C(C(=O)NC1CCCCC1)N(C(=O)Cc1cccs1)c1cccnc1 (stereo not shown) [Compound 111],100 to 1000
6,CCC(=O)Nc1cccc(N(C(=O)Cc2cccs2)C(C(=O)NC2CCCCC2)c2ccccc2C)c1 (stereo not shown) [Compound 112],100 to 1000
7,Cc1ccccc1C(C(=O)NC1CCCCC1)N(C(=O)Cc1cccs1)C1CCCCC1 (stereo not shown) [Compound 113],100 to 1000
8,O=C(NC1CCCCC1)C(c1c(Br)ccc(Br)c1F)N(C(=O)Cc1cccs1)c1cccc(F)c1 (stereo not shown) [Compound 114],100 to 1000
9,O=C(NC1CCCCC1)C(c1cccc(Br)c1)N(C(=O)Cc1cccs1)c1cccc(F)c1 (stereo not shown) [Compound 115],100 to 1000
10,COc1ccccc1C(C(=O)NC1CCCCC1)N(C(=O)Cc1cccs1)c1cccc(F)c1 (stereo not shown) [Compound 116],100 to 1000
11,Cc1ccc(N(C(=O)Cc2cccs2)C(C(=O)NC2CCCCC2)c2ccccc2C)cc1Cl (stereo not shown) [Compound 117],100 to 1000
12,Cc1ccccc1C(C(=O)NC1CCCCC1)N(C(=O)CCl)c1cccc(F)c1 (stereo not shown) [Compound 118],100 to 1000
13,Cc1ccccc1C(C(=O)NC1CCCCC1)N(C(=O)CNC1CC1)c1cccc(F)c1 (stereo not shown) [Compound 119],100 to 1000
14,Cc1ccccc1C(C(=O)NC1CCCCC1)N(C(=O)CNC1CCC1)c1cccc(F)c1 (stereo not shown) [Compound 120],100 to 1000
15,Cc1ccccc1C(C(=O)NC1CCCCC1)N(C(=O)CNC1CCCC1)c1cccc(F)c1 (stereo not shown) [Compound 121],100 to 1000
16,Cc1ccccc1C(C(=O)NC1CCCCC1)N(C(=O)Cc1cccs1)c1cccc(C(F)(F)F)c1 (stereo not shown) [Compound 122],100 to 1000
17,Cc1ccccc1C(C(=O)NC1CCCCC1)N(C(=O)Cc1cccs1)c1cccc(N2CCOCC2)c1 (stereo not shown) [Compound 123],100 to 1000
18,COc1cccc(N(C(=O)Cc2cccs2)C(C(=O)NC2CCCCC2)c2ccccc2C)c1 (stereo not shown) [Compound 124],100 to 1000
19,Cc1ccccc1C(C(=O)NC1CCCCC1)N(C(=O)C1COc2ccccc2O1)c1cccc(F)c1 (stereo not shown) [Compound 125],100 to 1000
20,Cc1ccc(F)c(C(C(=O)NC2CCCCC2)N(C(=O)Cc2cccs2)c2cccc(F)c2)c1 (stereo not shown) [Compound 127],100 to 1000

row,SMILES,IC50 [nM]
1,COc1ccc(F)c(C(C(=O)NC2CCCCC2)N(C(=O)Cc2cccs2)c2cccc(F)c2)c1 (stereo not shown) [Compound 128],100 to 1000
2,O=C(NC1CCCCC1)C(c1cc(F)ccc1Br)N(C(=O)Cc1cccs1)c1cccc(F)c1 (stereo not shown) [Compound 129],100 to 1000
3,Cc1cccc(C)c1C(C(=O)NC1CCCCC1)N(C(=O)Cc1cccs1)c1cccc(F)c1 (stereo not shown) [Compound 130],100 to 1000
4,CC(=O)c1cccc(N(C(=O)Cc2cccs2)C(C(=O)NC2CCCCC2)c2ccccc2C)c1 (stereo not shown) [Compound 131],100 to 1000
5,Cc1ccccc1C(C(=O)NC1CCCCC1)N(C(=O)c1ccc2c(c1)OCO2)c1cccc(F)c1 (stereo not shown) [Compound 132],100 to 1000
6,Cc1ccccc1C(C(=O)NC1CCCCC1)N(C(=O)CNc1cccc(F)c1)c1cccc(F)c1 (stereo not shown) [Compound 133],100 to 1000
7,Cc1ccccc1C(C(=O)NC1CCCCC1)N(C(=O)COc1ccccc1)c1cccc(F)c1 (stereo not shown) [Compound 136],100 to 1000
8,O=C(NC1CCCCC1)C(c1cccc(F)c1)N(C(=O)Cc1cccs1)c1cccc(F)c1 (stereo not shown) [Compound 137],100 to 1000
9,Cc1ccccc1C(C(=O)NC1CCCCC1)N(C(=O)c1cccs1)c1cccc(F)c1 (stereo not shown) [Compound 138],100 to 1000
10,Cc1ccccc1C(C(=O)NC1CCCCC1)N(C(=O)c1c(C)noc1C)c1cccc(F)c1 (stereo not shown) [Compound 139],100 to 1000
11,Cc1ccccc1C(C(=O)NC1CCCCC1)N(C(=O)Cc1cccs1)c1cccc(Cl)c1 (stereo not shown) [Compound 140],≤ 100
12,Cc1ccccc1C(C(=O)NC1CCCCC1)N(C(=O)CN1CCCCC1)c1cccc(F)c1 (stereo not shown) [Compound 141],100 to 1000
13,C#CC(=O)N(c1cccc(F)c1)C(C(=O)NC1CCCCC1)c1ccccc1C (stereo not shown) [Compound 142],100 to 1000
14,Cc1ccccc1C(C(=O)NC1CCCCC1)N(C(=O)CN1CCc2ccccc2C1)c1cccc(F)c1 (stereo not shown) [Compound 143],100 to 1000
15,Cc1ccc(N(C(=O)Cc2cccs2)C(C(=O)NC2CCCCC2)c2ccccc2C)cc1 (stereo not shown) [Compound 144],100 to 1000
16,Cc1ccccc1C(C(=O)NC1CCCCC1)N(C(=O)Cc1cccs1)c1ccc(F)cc1 (stereo not shown) [Compound 145],100 to 1000
17,Cc1ccccc1C(C(=O)NC1CCCCC1)N(C(=O)Cc1cccs1)c1cccc(Br)c1 (stereo not shown) [Compound 146],100 to 1000
18,Cc1ccccc1C(C(=O)NC1CCCCC1)N(C(=O)Cc1cccs1)c1ccccc1Cl (stereo not shown) [Compound 147],100 to 1000
19,Cc1ccccc1C(C(=O)NC1CCCCC1)N(C(=O)Cc1cccs1)c1ccc(Cl)cc1 (stereo not shown) [Compound 148],100 to 1000
20,Cc1ccccc1C(C(=O)NC1CCCCC1)N(C(=O)Cc1ccc(OC(=O)N2CCN(C)CC2)cc1)c1cccc(F)c1 (stereo not shown) [Compound 277],1000 to 10000
